In the NIST ThermoML archive (doi:10.1016/j.jct.2018.09.037):
Where “and” joins values, the source holds several entries; their conditions need not be identical. Equal values may be shown once.

Assay: xn = mol fraction of the nth substance listed
Conditions: 100 kPa, Liquid, Electromagnetic levitation / mass taken directly, volume taken from sample image

[Pd] [palladium] + [Fe]
Conditions	mass density
1414 K, x1 = 0.6	8979 kg/m3
1437 K, x1 = 0.6	8950 kg/m3
1440 K, x1 = 0.8	9717 kg/m3
1476 K, x1 = 0.6	8899 kg/m3
1483 K, x1 = 0.6	8904 kg/m3
1483 K, x1 = 0.8	9676 kg/m3
1500 K, x1 = 0.4	8297 kg/m3
1512 K, x1 = 0.4	8275 kg/m3
1536 K, x1 = 0.6	8856 kg/m3
1543 K, x1 = 0.8	9619 kg/m3
1551 K, x1 = 0.6	8825 kg/m3
1562 K, x1 = 0.4	8208 kg/m3
1590 K, x1 = 0.6	8791 kg/m3
1598 K, x1 = 0.8	9769 kg/m3
1613 K, x1 = 0.6	8779 kg/m3
1613 K, x1 = 0.8	9499 kg/m3
1624 K, x1 = 0.8	9547 kg/m3
1625 K, x1 = 0.4	8150 kg/m3
1625 K, x1 = 0.8	9735 kg/m3
1630 K, x1 = 0.2	7824 kg/m3
1633 K, x1 = 0.6	8756 kg/m3
1651 K, x1 = 0.2	7615 kg/m3
1663 K, x1 = 0.6	8735 kg/m3
1665 K, x1 = 0.8	9694 kg/m3
1667 K, x1 = 0.6	8709 kg/m3
1668 K, x1 = 0.2	7805 kg/m3
1672 K, x1 = 0.8	9450 kg/m3
1681 K, x1 = 0.2	7789 kg/m3 and 7591 kg/m3
1707 K, x1 = 0.8	9656 kg/m3
1711 K, x1 = 0.4	8076 kg/m3
1713 K, x1 = 0.2	7775 kg/m3
1715 K, x1 = 0.6	8695 kg/m3
1721 K, x1 = 0.2	7550 kg/m3
1725 K, x1 = 0.6	8660 kg/m3
1742 K, x1 = 0.2	7739 kg/m3
1749 K, x1 = 0.8	9379 kg/m3
1767 K, x1 = 0.8	9602 kg/m3
1772 K, x1 = 0.2	7506 kg/m3
1789 K, x1 = 0.6	8633 kg/m3
1790 K, x1 = 1	10670 kg/m3
1795 K, x1 = 1	10672 kg/m3
1796 K, x1 = 1	10652 kg/m3
1802 K, x1 = 1	10686 kg/m3
1809 K, x1 = 1	10670 kg/m3
1820 K, x1 = 1	10677 kg/m3
1829 K, x1 = 0.4	7971 kg/m3
1831 K, x1 = 1	10627 kg/m3
1832 K, x1 = 0.4	7965 kg/m3
1832 K, x1 = 0.8	9536 kg/m3
1838 K, x1 = 0.2	7700 kg/m3
1841 K, x1 = 0.8	9278 kg/m3
1843 K, x1 = 1	10654 kg/m3
1856 K, x1 = 1	10601 kg/m3
1864 K, x1 = 0.2	7646 kg/m3
1872 K, x1 = 0.2	7426 kg/m3
1878 K, x1 = 1	10558 kg/m3
1879 K, x1 = 0.6	8530 kg/m3
1889 K, x1 = 0.6	8544 kg/m3
1889 K, x1 = 1	10592 kg/m3
1890 K, x1 = 1	10575 kg/m3
1916 K, x1 = 0.8	9434 kg/m3
1917 K, x1 = 1	10529 kg/m3
1935 K, x1 = 1	10478 kg/m3
1951 K, x1 = 1	10465 kg/m3
